Values of other authors in patent US20220273584A1, “Film Formulation Comprising Carriers” (Klaria Pharma Holding AB, priority 2019, published 2022).

Conditions: at a concentration of 1-10%

permeability with porcine buccal epithelium: enhanced permeability
SMILES: CCCCCCCC/C=C\CCCCCCCC(=O)O [Oleic acid, oleic acid]
